Measurements published in US10844077B2, “Thiazolyl-containing compounds for treating proliferative diseases” (Dana-Farber Cancer Institute, Inc., priority 2014, dated 2020).
Where “and” joins values, the source holds several entries; their conditions need not be identical. Equal values may be shown once.

How the values were obtained:
[1] = test system: ABL, ARG; experiment: KINATIV assay; format: cell-based; details: 1 μM, 90 minutes, BCWM.1 cells
Protocol: (§1) The cells were harvested and lysed. The lysates were directly labeled with an ATP-biotin probe. Bound kinases were identified and quantitated by ACTIVX as described in Patricelli et al., Biochemistry, 2007, 46(2): 350-358. The compounds were tested in duplicates against duplicate or quadruplicate control samples.

[2] = test system: AMPKa1, AMPKa2; experiment: KINATIV assay; format: cell-based; details: 1 μM, 90 minutes, BCWM.1 cells
Protocol: as §1

[3] = target: CASK (Homo sapiens (Human), UniProt O14936); experiment: KINATIV assay; format: cell-based; details: 1 μM, 90 minutes, BCWM.1 cells
Protocol: as §1

[4] = test system: CDK11, CDK8; experiment: KINATIV assay; format: cell-based; details: 1 μM, 90 minutes, BCWM.1 cells
Protocol: as §1

[5] = target: CK2a1 (Homo sapiens (Human), UniProt P68400); experiment: KINATIV assay; format: cell-based; details: 1 μM, 90 minutes, BCWM.1 cells
Protocol: as §1

[6] = target: EphB2 (Homo sapiens (Human), UniProt P29323); experiment: KINATIV assay; format: cell-based; details: 1 μM, 90 minutes, BCWM.1 cells
Protocol: as §1

[7] = target: Erk1 (Homo sapiens (Human), UniProt P27361); experiment: KINATIV assay; format: cell-based; details: 1 μM, 90 minutes, BCWM.1 cells
Protocol: as §1

[8] = target: FES (Homo sapiens (Human), UniProt P07332); experiment: KINATIV assay; format: cell-based; details: 1 μM, 90 minutes, BCWM.1 cells
Protocol: as §1

[9] = target: HPK1 (Homo sapiens (Human), UniProt Q92918); experiment: KINATIV assay; format: cell-based; details: 1 μM, 90 minutes, BCWM.1 cells
HPK1, sequence (Q92918 whole entry): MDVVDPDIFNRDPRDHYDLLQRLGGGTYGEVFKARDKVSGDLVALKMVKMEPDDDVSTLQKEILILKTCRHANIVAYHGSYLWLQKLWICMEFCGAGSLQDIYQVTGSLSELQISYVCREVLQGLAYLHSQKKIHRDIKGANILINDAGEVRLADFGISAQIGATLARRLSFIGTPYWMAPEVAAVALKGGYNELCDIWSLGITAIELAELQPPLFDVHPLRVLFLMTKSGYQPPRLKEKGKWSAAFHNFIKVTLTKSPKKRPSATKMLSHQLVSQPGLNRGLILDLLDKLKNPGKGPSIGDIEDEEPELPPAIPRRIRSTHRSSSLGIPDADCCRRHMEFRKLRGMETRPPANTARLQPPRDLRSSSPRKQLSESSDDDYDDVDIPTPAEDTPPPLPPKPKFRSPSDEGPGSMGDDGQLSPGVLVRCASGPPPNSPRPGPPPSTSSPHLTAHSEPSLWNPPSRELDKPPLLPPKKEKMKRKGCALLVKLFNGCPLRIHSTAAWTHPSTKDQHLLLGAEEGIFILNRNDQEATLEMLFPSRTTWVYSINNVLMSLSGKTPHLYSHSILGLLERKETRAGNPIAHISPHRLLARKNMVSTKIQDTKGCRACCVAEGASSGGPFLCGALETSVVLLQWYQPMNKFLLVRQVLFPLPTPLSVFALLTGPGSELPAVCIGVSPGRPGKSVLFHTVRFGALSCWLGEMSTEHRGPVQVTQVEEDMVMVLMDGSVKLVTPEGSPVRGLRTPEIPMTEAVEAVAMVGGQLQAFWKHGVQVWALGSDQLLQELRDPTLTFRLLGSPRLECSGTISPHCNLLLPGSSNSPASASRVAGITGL
Protocol: as §1

[10] = target: IKKa (Homo sapiens (Human), UniProt O15111); experiment: KINATIV assay; format: cell-based; details: 1 μM, 90 minutes, BCWM.1 cells
Protocol: as §1

[11] = target: IKKe (Homo sapiens (Human), UniProt Q14164); experiment: KINATIV assay; format: cell-based; details: 1 μM, 90 minutes, BCWM.1 cells
Protocol: as §1

[12] = test system: KSR1, KSR2; experiment: KINATIV assay; format: cell-based; details: 1 μM, 90 minutes, BCWM.1 cells
Protocol: as §1

[13] = target: LCK (Homo sapiens (Human), UniProt P06239); experiment: KINATIV assay; format: cell-based; details: 1 μM, 90 minutes, BCWM.1 cells
Protocol: as §1

[14] = target: LKB1 (Homo sapiens (Human), UniProt Q15831); experiment: KINATIV assay; format: cell-based; details: 1 μM, 90 minutes, BCWM.1 cells
Protocol: as §1

[15] = target: MAP2K1 (Homo sapiens (Human), UniProt Q02750); experiment: KINATIV assay; format: cell-based; details: 1 μM, 90 minutes, BCWM.1 cells
Protocol: as §1

[16] = target: MAP3K4 (Homo sapiens (Human), UniProt Q9Y6R4); experiment: KINATIV assay; format: cell-based; details: 1 μM, 90 minutes, BCWM.1 cells
MAP3K4, sequence (Q9Y6R4 whole entry): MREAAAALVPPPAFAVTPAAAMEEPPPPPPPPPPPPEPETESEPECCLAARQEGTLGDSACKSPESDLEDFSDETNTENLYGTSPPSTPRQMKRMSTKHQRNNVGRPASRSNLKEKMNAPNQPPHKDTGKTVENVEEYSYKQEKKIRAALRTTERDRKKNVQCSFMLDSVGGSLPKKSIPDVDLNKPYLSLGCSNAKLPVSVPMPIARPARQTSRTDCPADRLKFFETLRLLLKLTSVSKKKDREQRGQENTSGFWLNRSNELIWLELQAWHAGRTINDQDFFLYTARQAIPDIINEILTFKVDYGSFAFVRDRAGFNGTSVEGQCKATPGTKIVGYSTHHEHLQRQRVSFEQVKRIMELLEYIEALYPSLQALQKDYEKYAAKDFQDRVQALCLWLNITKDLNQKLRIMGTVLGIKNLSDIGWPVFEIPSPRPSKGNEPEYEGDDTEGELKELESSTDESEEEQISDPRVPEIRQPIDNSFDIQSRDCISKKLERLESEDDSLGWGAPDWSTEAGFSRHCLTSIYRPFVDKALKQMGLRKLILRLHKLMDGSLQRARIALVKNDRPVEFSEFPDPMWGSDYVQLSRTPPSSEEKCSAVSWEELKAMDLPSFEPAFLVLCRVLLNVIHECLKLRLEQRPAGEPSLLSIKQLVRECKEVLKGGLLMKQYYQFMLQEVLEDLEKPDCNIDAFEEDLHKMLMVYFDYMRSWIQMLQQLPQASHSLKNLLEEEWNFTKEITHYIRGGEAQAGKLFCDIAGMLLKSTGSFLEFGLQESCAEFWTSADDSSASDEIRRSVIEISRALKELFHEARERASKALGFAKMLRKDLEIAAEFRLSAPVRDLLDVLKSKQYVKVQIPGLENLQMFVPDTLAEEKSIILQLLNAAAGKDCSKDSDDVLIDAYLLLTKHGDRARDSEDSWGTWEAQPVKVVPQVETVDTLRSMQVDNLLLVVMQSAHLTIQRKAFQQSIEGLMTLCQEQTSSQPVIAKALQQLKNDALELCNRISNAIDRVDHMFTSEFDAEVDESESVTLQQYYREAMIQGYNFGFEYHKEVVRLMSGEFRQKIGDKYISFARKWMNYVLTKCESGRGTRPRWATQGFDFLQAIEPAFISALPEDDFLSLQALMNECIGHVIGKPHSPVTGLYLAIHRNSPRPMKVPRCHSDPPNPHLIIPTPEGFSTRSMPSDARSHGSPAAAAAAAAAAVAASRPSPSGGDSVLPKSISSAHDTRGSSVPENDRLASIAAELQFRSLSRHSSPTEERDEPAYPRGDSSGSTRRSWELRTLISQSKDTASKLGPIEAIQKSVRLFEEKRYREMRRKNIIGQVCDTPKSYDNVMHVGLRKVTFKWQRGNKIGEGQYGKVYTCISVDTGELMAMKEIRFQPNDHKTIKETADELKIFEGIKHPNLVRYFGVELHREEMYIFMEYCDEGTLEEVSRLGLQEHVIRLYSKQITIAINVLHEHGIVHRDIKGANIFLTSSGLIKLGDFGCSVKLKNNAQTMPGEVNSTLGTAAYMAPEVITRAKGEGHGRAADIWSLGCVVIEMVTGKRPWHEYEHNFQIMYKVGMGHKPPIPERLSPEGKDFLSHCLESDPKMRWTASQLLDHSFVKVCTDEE
Protocol: as §1

[17] = test system: MARK3, MARK4; experiment: KINATIV assay; format: cell-based; details: 1 μM, 90 minutes, BCWM.1 cells
Protocol: as §1

[18] = target: MARK4 (Homo sapiens (Human), UniProt Q96L34); experiment: KINATIV assay; format: cell-based; details: 1 μM, 90 minutes, BCWM.1 cells
MARK4, sequence (Q96L34 whole entry): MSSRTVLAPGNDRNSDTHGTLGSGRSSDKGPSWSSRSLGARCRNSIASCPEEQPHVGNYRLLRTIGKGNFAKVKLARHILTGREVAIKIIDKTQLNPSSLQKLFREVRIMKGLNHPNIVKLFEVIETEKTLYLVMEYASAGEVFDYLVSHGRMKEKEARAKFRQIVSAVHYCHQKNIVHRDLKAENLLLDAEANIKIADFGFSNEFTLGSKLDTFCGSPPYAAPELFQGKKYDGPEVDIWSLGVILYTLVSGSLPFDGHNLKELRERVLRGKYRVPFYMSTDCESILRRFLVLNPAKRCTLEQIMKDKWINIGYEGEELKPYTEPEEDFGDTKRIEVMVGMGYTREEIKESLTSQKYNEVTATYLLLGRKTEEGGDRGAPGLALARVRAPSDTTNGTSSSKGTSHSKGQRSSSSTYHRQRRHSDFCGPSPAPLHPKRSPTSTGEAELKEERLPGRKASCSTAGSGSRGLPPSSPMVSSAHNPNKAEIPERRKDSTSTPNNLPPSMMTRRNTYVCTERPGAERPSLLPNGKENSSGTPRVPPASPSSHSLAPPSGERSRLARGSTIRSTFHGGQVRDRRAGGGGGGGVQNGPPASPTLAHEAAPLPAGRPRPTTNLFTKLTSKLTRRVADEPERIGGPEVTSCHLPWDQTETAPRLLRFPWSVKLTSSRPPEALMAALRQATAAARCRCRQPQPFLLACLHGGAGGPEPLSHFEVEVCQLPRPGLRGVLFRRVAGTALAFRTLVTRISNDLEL
Protocol: as §1

[19] = target: MAST3 (Homo sapiens (Human), UniProt O60307); experiment: KINATIV assay; format: cell-based; details: 1 μM, 90 minutes, BCWM.1 cells
Protocol: as §1

[20] = target: MELK (Homo sapiens (Human), UniProt Q14680); experiment: KINATIV assay; format: cell-based; details: 1 μM, 90 minutes, BCWM.1 cells
Protocol: as §1

[21] = target: MLK3 (Homo sapiens (Human), UniProt Q16584); experiment: KINATIV assay; format: cell-based; details: 1 μM, 90 minutes, BCWM.1 cells
Protocol: as §1

[22] = target: MSK1 domain1 (Homo sapiens (Human), UniProt O75582); experiment: KINATIV assay; format: cell-based; details: 1 μM, 90 minutes, BCWM.1 cells
Protocol: as §1

[23] = test system: MST1, MST2; experiment: KINATIV assay; format: cell-based; details: 1 μM, 90 minutes, BCWM.1 cells
Protocol: as §1

[24] = target: NLK (Homo sapiens (Human), UniProt Q9UBE8); experiment: KINATIV assay; format: cell-based; details: 1 μM, 90 minutes, BCWM.1 cells
Protocol: as §1

[25] = target: PHKg2 (Homo sapiens (Human), UniProt P15735); experiment: KINATIV assay; format: cell-based; details: 1 μM, 90 minutes, BCWM.1 cells
Protocol: as §1

[26] = target: PIK3CD (Homo sapiens (Human), UniProt O00329); experiment: KINATIV assay; format: cell-based; details: 1 μM, 90 minutes, BCWM.1 cells
Protocol: as §1

[27] = test system: PITSLRE; experiment: KINATIV assay; format: cell-based; details: 1 μM, 90 minutes, BCWM.1 cells
Protocol: as §1

[28] = target: PKN1 (Homo sapiens (Human), UniProt Q16512); experiment: KINATIV assay; format: cell-based; details: 1 μM, 90 minutes, BCWM.1 cells
Protocol: as §1

[29] = target: RSK3 domain1 (Homo sapiens (Human), UniProt Q15349); experiment: KINATIV assay; format: cell-based; details: 1 μM, 90 minutes, BCWM.1 cells
Protocol: as §1

[30] = target: TAK1 (Homo sapiens (Human), UniProt O43318); experiment: KINATIV assay; format: cell-based; details: 1 μM, 90 minutes, BCWM.1 cells
TAK1, sequence (O43318 whole entry): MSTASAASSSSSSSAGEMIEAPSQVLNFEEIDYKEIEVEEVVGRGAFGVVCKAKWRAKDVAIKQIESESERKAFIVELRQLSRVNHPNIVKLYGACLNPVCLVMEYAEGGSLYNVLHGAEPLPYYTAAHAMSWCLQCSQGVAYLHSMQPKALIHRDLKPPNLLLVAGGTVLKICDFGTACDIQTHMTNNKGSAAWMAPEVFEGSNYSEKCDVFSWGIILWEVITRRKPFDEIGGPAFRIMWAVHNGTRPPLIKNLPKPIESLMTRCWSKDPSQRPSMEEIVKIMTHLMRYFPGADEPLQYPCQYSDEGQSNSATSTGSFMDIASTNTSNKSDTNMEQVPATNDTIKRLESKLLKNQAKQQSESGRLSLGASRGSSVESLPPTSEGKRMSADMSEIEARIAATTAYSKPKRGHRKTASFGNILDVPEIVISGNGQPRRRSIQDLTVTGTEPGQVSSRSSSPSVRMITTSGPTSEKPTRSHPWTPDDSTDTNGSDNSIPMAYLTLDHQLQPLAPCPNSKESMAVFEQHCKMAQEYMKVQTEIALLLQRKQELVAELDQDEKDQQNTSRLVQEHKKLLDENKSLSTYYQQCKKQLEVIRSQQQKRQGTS
Protocol: as §1

[31] = target: TEC (Homo sapiens (Human), UniProt P42680); experiment: KINATIV assay; format: cell-based; details: 1 μM, 90 minutes, BCWM.1 cells
TEC, sequence (P42680 whole entry): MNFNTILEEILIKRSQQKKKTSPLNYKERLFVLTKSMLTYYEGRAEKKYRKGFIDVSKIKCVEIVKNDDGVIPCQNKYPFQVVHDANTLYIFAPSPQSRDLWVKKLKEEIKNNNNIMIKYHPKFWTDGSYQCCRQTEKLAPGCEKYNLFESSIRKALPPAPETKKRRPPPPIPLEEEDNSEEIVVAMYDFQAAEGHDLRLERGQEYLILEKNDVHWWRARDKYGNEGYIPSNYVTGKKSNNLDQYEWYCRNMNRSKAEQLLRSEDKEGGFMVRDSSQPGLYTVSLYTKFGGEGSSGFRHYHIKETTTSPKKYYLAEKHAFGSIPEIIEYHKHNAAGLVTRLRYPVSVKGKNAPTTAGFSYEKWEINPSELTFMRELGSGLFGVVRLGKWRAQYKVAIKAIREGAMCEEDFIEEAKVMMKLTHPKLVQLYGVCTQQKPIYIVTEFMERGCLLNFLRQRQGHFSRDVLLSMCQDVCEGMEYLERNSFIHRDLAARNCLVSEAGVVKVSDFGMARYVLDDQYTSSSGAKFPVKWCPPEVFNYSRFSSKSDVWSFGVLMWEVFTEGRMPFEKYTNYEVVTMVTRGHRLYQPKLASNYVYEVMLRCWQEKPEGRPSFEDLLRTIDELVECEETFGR
Protocol: as §1

[32] = test system: Wnk1, Wnk2; experiment: KINATIV assay; format: cell-based; details: 1 μM, 90 minutes, BCWM.1 cells
Protocol: as §1

[33] = target: YSK1 (Homo sapiens (Human), UniProt O00506); experiment: KINATIV assay; format: cell-based; details: 1 μM, 90 minutes, BCWM.1 cells
YSK1, sequence (O00506 whole entry): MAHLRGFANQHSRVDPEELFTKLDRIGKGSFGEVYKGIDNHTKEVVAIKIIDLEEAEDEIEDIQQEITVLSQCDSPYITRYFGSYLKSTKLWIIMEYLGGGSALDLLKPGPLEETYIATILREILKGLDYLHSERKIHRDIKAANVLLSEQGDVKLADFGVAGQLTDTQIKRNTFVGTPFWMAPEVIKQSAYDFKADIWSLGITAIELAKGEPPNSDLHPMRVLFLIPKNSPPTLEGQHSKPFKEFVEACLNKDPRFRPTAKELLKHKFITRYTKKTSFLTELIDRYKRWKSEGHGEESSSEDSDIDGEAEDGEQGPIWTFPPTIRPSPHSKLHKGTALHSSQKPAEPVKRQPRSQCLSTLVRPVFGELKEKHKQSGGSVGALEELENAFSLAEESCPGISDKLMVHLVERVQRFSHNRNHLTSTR
Protocol: as §1

[34] = target: ZC2/TNIK (Homo sapiens (Human), UniProt Q9UKE5); experiment: KINATIV assay; format: cell-based; details: 1 μM, 90 minutes, BCWM.1 cells
Protocol: as §1

[35] = target: p70S6Kb (Homo sapiens (Human), UniProt Q9UBS0); experiment: KINATIV assay; format: cell-based; details: 1 μM, 90 minutes, BCWM.1 cells
Protocol: as §1

[36] = target: MAPKAPK3 (Homo sapiens (Human), UniProt Q16644)
Protocol: as §1

[37] = target: PCTAIRE1 (Homo sapiens (Human), UniProt Q00536)
Protocol: as §1

[38] = target: PCTAIRE2 (Homo sapiens (Human), UniProt Q00537)
Protocol: as §1

[39] = target: PRP4 (Homo sapiens (Human), UniProt Q13523)
Protocol: as §1

[40] = target: PRPK (Homo sapiens (Human), UniProt Q96S44)
Protocol: as §1

[41] = test system: PCTAIRE1, PCTAIRE3; experiment: KINATIV assay; format: cell-based; details: 1 μM, 90 minutes, BCWM.1 cells
Text: (§2) The cells were harvested and lysed.

[42] = test system: PCTAIRE2, PCTAIRE3; experiment: KINATIV assay; format: cell-based; details: 1 μM, 90 minutes, BCWM.1 cells
Text: as §2

SMILES: C=CC(=O)N1CCCCC(Nc2nccc(Nc3ncc(C(=O)Nc4c(C)cccc4C)s3)n2)C1 (stereo not drawn) [Example I-7]
- % change of MS signal compared to control sample [1]: >90% and >97%
- % change of MS signal compared to control sample [2]: −20.7% and −22.3%
- % change of MS signal compared to control sample [3]: 37.7%
- % change of MS signal compared to control sample [4]: −3.5%
- % change of MS signal compared to control sample [5]: 14.3%
- % change of MS signal compared to control sample [6]: >90%
- % change of MS signal compared to control sample [7]: −23.1%
- % change of MS signal compared to control sample [8]: −20.9%
- % change of MS signal compared to control sample [9]: 23.4% and 19.8%
- % change of MS signal compared to control sample [10]: −3.5%
- % change of MS signal compared to control sample [11]: 0.4%
- % change of MS signal compared to control sample [12]: −10.1%
- % change of MS signal compared to control sample [13]: 96.5%
- % change of MS signal compared to control sample [14]: 1.2%
- % change of MS signal compared to control sample [15]: −3.7%
- % change of MS signal compared to control sample [16]: −24.2%
- % change of MS signal compared to control sample [17]: 20.7%
- % change of MS signal compared to control sample [18]: 4.9% and 14.1%
- % change of MS signal compared to control sample [19]: −1.6%
- % change of MS signal compared to control sample [20]: −11.0%
- % change of MS signal compared to control sample [21]: −4.6%
- % change of MS signal compared to control sample [22]: −40.5%
- % change of MS signal compared to control sample [23]: 9.5%
- % change of MS signal compared to control sample [24]: 4.2%
- % change of MS signal compared to control sample [25]: 0.6%
- % change of MS signal compared to control sample [26]: −19.1%
- % change of MS signal compared to control sample [27]: −9.3%
- % change of MS signal compared to control sample [28]: 4.2%
- % change of MS signal compared to control sample [29]: −48.6%
- % change of MS signal compared to control sample [30]: 14.5%
- % change of MS signal compared to control sample [31]: 85.1% and 58.6%
- % change of MS signal compared to control sample [32]: −8.6%
- % change of MS signal compared to control sample [33]: −19.9%
- % change of MS signal compared to control sample [34]: −1.5%
- % change of MS signal compared to control sample [35]: −42.7%
- % change of MS signal compared to control sample [36]: 0.9%
- % change of MS signal compared to control sample [37]: 38.2%
- % change of MS signal compared to control sample [38]: 9.9%
- % change of MS signal compared to control sample [39]: −4.1%
- % change of MS signal compared to control sample [40]: −3.8%
- % change of MS signal compared to control sample [41]: 14.9%
- % change of MS signal compared to control sample [42]: 27.0%

SMILES: C=CC(=O)N1CCC(Cn2ccc(Nc3ncc(C(=O)Nc4c(C)cccc4Cl)s3)n2)C1 (stereo not drawn) [II-1]
- % change of MS signal compared to control sample [1]: 76.1% and 39.5%
- % change of MS signal compared to control sample [2]: −19.4% and −27.3%
- % change of MS signal compared to control sample [3]: 29.4%
- % change of MS signal compared to control sample [4]: −9.2%
- % change of MS signal compared to control sample [5]: 24.7%
- % change of MS signal compared to control sample [6]: >90%
- % change of MS signal compared to control sample [7]: −17.6%
- % change of MS signal compared to control sample [8]: −15.0%
- % change of MS signal compared to control sample [9]: 23.0% and 12.1%
- % change of MS signal compared to control sample [10]: −2.1%
- % change of MS signal compared to control sample [11]: −1.0%
- % change of MS signal compared to control sample [12]: −8.7%
- % change of MS signal compared to control sample [13]: 92.4%
- % change of MS signal compared to control sample [14]: −1.2%
- % change of MS signal compared to control sample [15]: −23.4%
- % change of MS signal compared to control sample [16]: −23.9%
- % change of MS signal compared to control sample [17]: 17.4%
- % change of MS signal compared to control sample [18]: 12.8% and 9.7%
- % change of MS signal compared to control sample [19]: 3.8%
- % change of MS signal compared to control sample [20]: 4.2%
- % change of MS signal compared to control sample [21]: −18.0%
- % change of MS signal compared to control sample [22]: −35.0%
- % change of MS signal compared to control sample [23]: 3.1%
- % change of MS signal compared to control sample [24]: 3.7%
- % change of MS signal compared to control sample [25]: −9.1%
- % change of MS signal compared to control sample [26]: −9.5%
- % change of MS signal compared to control sample [27]: −16.1%
- % change of MS signal compared to control sample [28]: 20.9%
- % change of MS signal compared to control sample [29]: −58.4%
- % change of MS signal compared to control sample [30]: 25.6%
- % change of MS signal compared to control sample [31]: 91.5% and 80.8%
- % change of MS signal compared to control sample [32]: −3.8%
- % change of MS signal compared to control sample [33]: −27.4%
- % change of MS signal compared to control sample [34]: −10.0%
- % change of MS signal compared to control sample [35]: −57.1%
- % change of MS signal compared to control sample [36]: 6.2%
- % change of MS signal compared to control sample [37]: 38.4%
- % change of MS signal compared to control sample [38]: 7.7%
- % change of MS signal compared to control sample [39]: 6.9%
- % change of MS signal compared to control sample [40]: −5.2%
- % change of MS signal compared to control sample [41]: 11.4%
- % change of MS signal compared to control sample [42]: 31.8%
